The subject of assay [1] is lipid peroxidation reaction in liposomes (AAPH system). In words: NBD-TEEPO assay in artificial lipid membranes, AAPH system. In kind it is biochemical. Particulars: AAPH 20 mM, AsA 0-20 μM, after 40 minutes. The method, then:
(§1) Probes (NBD-TEEPO compound) (5.0 μM) and liposomes (2.5 mg/mL Egg PC, 0.1 mg/mL DCP) were mixed in phosphate buffer (10 mM, pH 7.4, 0.5% DMSO, 0.5% acetonitrile) at 37° C. AAPH (0-20 mM) or FeSO4 (0-2.0 mM) was added to the mixture, and the lipid peroxidation reaction was started. After 40 minutes in the AAPH system or after 60 minutes in the Fe^2+ system, the fluorescence intensity was measured at an excitation wavelength of 470 nm and a fluorescence wavelength of 530 nm.

The subject of assay [2] is HepG2 cells. In words: Intracellular lipid peroxidation inhibition by antioxidants (NBD-TEEPO assay). Particulars: 200 μM AA or 300 μM tBHP, 50 μM antioxidant, 45 minutes. In kind it is cell-based, human. The method, then: Human hepatoma cells (HepG2 cells) were cultured with DMEM medium (containing 10% FBS, 1% Penicillin-Streptomycin and 1×MEM non-essential amino acids) in a CO2 incubator (37° C., 5% CO2). Passaging was performed when 60-70% subconfluent state was reached. DMEM media (phenol red free, containing 1% Penicillin-Streptomycin) was used for various measurements. HepG2 cells were seeded in a 96-well plate at 10,000 cells/well. The cells were incubated for 24 hours to adhere. AA (200 μM) or tBHP (0 to 300 μM), antioxidant (50 μM), and probe (5.0 μM) were added to the cells in DMEM medium (0.5% DMSO, 0.5% acetonitrile), and after 45 minutes, the fluorescence intensity was measured at an excitation wavelength of 470 nm and a fluorescence wavelength of 530 nm.

Assay [3] concerns HepG2 cells. The experiment in a line: Secondary screening, Core Library (NBD-TEEPO assay). Particulars: 50 μM compound, 200 μM AA (45 minutes) or 300 μM tBHP (60 minutes); high activity values in both systems. Format: cell-based, human. The protocol:
In the screening by the cell-based assay method, activity values were determined from the values of fluorescence intensity measured in each screening using AA or tBHP as a reaction initiator, based on the following expression: Activity value=100(AUCSample−AUCBackground)/(AUCControl−AUCBackground) • AUCSample: Area under the curve calculated from the fluorescence intensity for with reaction initiator and with each compound (n=1) • AUCControl: Area under the curve calculated from fluorescence intensity for with reaction initiator and without each compound • AUCBackground: Area under the curve calculated from fluorescence intensity for without reaction initiator and without each compound
For the compounds, 10 mM 100% DMSO solutions (dispensed at 5.0 µL/well) were provided from Drug Discovery Initiative, the University of Tokyo. 495 μL of DMEM medium for measurement was added, and a 1.0% DMSO solution containing 100 μM of the compound was prepared. This solution was dispensed by 80 μL with Biomek NXP into a measuring plate on which cells were seeded in advance. To the test compound (100 μM 1.0% DMSO), 64 μL of DMEM medium (1.25% acetonitrile) containing 12.5 M NBD-TEEPO compound, and 16 μL of PBS in which AA (2000 μM, 5.0% ethanol) or tBHP (3000 μM) was dissolved were manually dispensed. The final concentration was 50 μM test compound and 200 μM AA or 300 μM tBHP in DMEM medium (0.5% DMSO, 0.5% acetonitrile).
The reaction mixture was mixed at 37° C., and the fluorescence intensity at an excitation wavelength of 470 nm and a fluorescence wavelength of 530 nm was measured over time every 3 minutes. The AUC was calculated from the fluorescence intensity for 45 minutes in the AA-added system or 60 minutes in the tBHP-added system, and the activity value of each test compound was calculated according to the expression described herein.

Assay [4] has as its system HepG2 cells. In words: Secondary screening, Core Library (MTT assay). In kind it is cell-based, human. Particulars: 50 μM compound, 100 μM AA or tBHP, 24 hours. The method, then:
As a cell-based screening for examining the cell death inhibitory activity, an assay using human hepatoma-derived HepG2 cells and AA and tBHP as radical initiators is performed, and the cell viability is measured. The activity value is determined from the cell viability value based on the following expression: Activity value=100(ViabilitySample−ViabilityControl(+))/(ViabilityControl(−)−ViabilityControl(+)) • ViabilitySample: Cell viability for with reaction initiator and with each compound (n=1) • ViabilityControl(+): Cell viability for with reaction initiator and with each compound • ViabilityControl(−): Cell viability for without reaction initiator and without each compound
For the compounds, 10 mM 100% DMSO solutions (dispensed at 5.0 µL/well) were provided from Drug Discovery Initiative, the University of Tokyo. 495 μL of DMEM medium for measurement was added, and 1.0% DMSO solution containing 100 μM of the compound was prepared. This solution was dispensed by 80 μL with Biomek NXP into a measuring plate on which cells were seeded in advance. To the test compound (100 μM 1.0% DMSO), 64 μL of DMEM medium, 16 μL of PBS in which AA (1000 μM, 5.0% ethanol) or tBHP (1000 μM) was dissolved were manually dispensed. The final concentration was 5.0 μM NBD-TEEPO compound, 50 μM test compound, and 100 μM AA or tBHP in DMEM medium (0.5% DMSO, 0.5% acetonitrile). After 24 hours, the medium was exchanged, and MTT solution (0.5 mg/mL, 0.5% DMSO) was added. Then, cells were incubated for 24 hours, and the solution was removed. 100 μL of DMSO was added, and the absorbance at 630 nm was measured. The cell viability was calculated according to the expression described herein, with regarding the case without AA or tBHP as 100%.

Assay [5] has as its system HepG2 cells. In words: Tertiary screening, Core Library (MTT assay). In kind it is cell-based, human. Particulars: 50 μM compound, 100 μM AA or tBHP, 24 hours. The method, then: Specifically, the nine hit compounds, Compound Nos. 7, 19, 39, 48, 52, 64, 73, 78, 80, of the secondary screening had 5, 2, 4, 6, 6, 5, 5, 10, 2 structural analogs, respectively, thus, a total 45 structural analogs were taken. Then, including the original 9 compounds, a total 54 compounds were subjected to tertiary screening, and the activity values were calculated in the same manner. […]

For assay [6], the system named is HepG2 cells. The experiment in a line: Tertiary screening, Core Library (NBD-TEEPO assay). In kind it is cell-based, human. Particulars: 50 μM compound, 200 μM AA or 300 μM tBHP. The method, then:
The Core Library of Drug Discovery Initiative, the University of Tokyo, includes structural analogs for each compound. Then, secondary screening was also performed for structural analog compounds for each candidate compound in the same manner as Example 13 and the activity values were evaluated.
Specifically, the nine hit compounds, Compound Nos. 7, 19, 39, 48, 52, 64, 73, 78, 80, of the secondary screening had 5, 2, 4, 6, 6, 5, 5, 10, 2 structural analogs, respectively, thus, a total 45 structural analogs were taken. Then, including the original 9 compounds, a total 54 compounds were subjected to tertiary screening, and the activity values were calculated in the same manner.
For the evaluation of cytotoxicity, 50 μM antioxidant was added to HepG2 cells in DMEM medium (0.5% DMSO), and after incubation at 37° C. for 72 hours, the cell viability was measured. • 4) The activity values of the two-added systems in each of the assay using NBD-TEEPO and the MTT assay were plotted (FIG. 15C and FIG. 16C).

In assay [7] the test system is lipid peroxidation reaction in liposomes (Fe^2+ system). The experiment in a line: NBD-TEEPO assay in artificial lipid membranes, Fe2+ system. In kind it is biochemical. Particulars: FeSO4 1 mM, Eda 0-20 μM, after 60 minutes. The protocol: as §1

`O=C1O[C@H]([C@@H](O)CO)C(O)=C1O` [AsA, ascorbic acid]: in assay [1], the “inhibition of NBD-TEEPO fluorescence increase” value is “inhibited the fluorescence increase concentration-dependently”.
With `Oc1cc(O)c2c(c1)O[C@H](c1ccc(O)c(O)c1)[C@H](O)C2` [Catechin, (−)-epicatechin], the “inhibitory effect on AA- and tBHP-induced fluorescence increase” value in assay [2] is given as “strongest inhibitory effect”.
For `CC(Nc1ccc(Nc2ccccc2)cc1)C(=O)Nc1ccc(S(N)(=O)=O)cc1` (stereo not shown) [Compound 7, 2-((4-(Phenylamino)phenyl)amino)-N-(4-sulfamoylphenyl)propanamide], in assay [3], the “activity values (lipid peroxidation inhibition) in both AA-added and tBHP-added systems” value is reported as “hit compounds”.
As for `C/C(=N/Nc1nnc(Nc2ccccc2Cl)s1)c1ccccn1` [Compound 19], the “inhibition rates (cell death inhibition) in both AA-added and tBHP-added systems” value (shortened to “inhibition rates (cell death inhibition)”) in assay [4] is “high inhibition rates in both systems”.
With `CN(C1CC(C)(C)N(O)C(C)(C)C1)S(=O)(=O)CC12CCC(CC1=O)C2(C)C` (stereo not shown) [Compound 39, 1-(7,7-Dimethyl-2-oxobicyclo[2.2.1]heptan-1-yl)-N-(1-hydroxy-2,2,6,6-tetramethylpiperidin-4-yl)-N-methylmethanesulfonamide], the “inhibition rates (cell death inhibition)” value in assay [4] is “high inhibition rates in both systems”.
Consider `COc1cc(/C=C/c2ccc3cccc([N+](=O)[O-])c3n2)cc(OC)c1O` [Compound 48, 2,6-Dimethoxy-4-(2-(8-nitroquinolin-2-yl)vinyl)phenol], for which the “activity values (lipid peroxidation inhibition) in both AA-added and tBHP-added systems” value in assay [3] is “hit compounds”.
With `COC(=O)c1ccc(Nc2ccccc2)c(N)c1` [Compound 52, Methyl 3-amino-4-(phenylamino)benzoate], the “cell death inhibitory effects” value in assay [5] was “high”. In assay [4], the “inhibition rates (cell death inhibition)” value was “high inhibition rates in both systems”. In addition, the “lipid peroxidation inhibitory effects” value in assay [6] is on record as “high”.
Regarding `COC(=O)c1ccc(Nc2ccc(OC)cc2)c(N)c1` [Compound 52-1, Methyl 3-amino-4-((4-methoxyphenyl)amino)benzoate], the “cell death inhibitory effects” value in assay [5] is listed as “high”. Moreover, in assay [6], the “lipid peroxidation inhibitory effects” value is on record as “high”.
As for `COC(=O)c1ccc(Nc2cccc(OC)c2)c(N)c1` [Compound 52-3, Methyl 3-amino-4-((3-methoxyphenyl)amino)benzoate], the “cell death inhibitory effects” value in assay [5] is given as “high”. For the same molecule, the “lipid peroxidation inhibitory effects” value in assay [6] is reported as “high”.
`COC(=O)c1ccc(NCc2ccccc2)c(N)c1` [Compound 52-4, Methyl 3-amino-4-(benzylamino)benzoate]: the “cell death inhibitory effects” value in assay [5] is “high”. Further, the “lipid peroxidation inhibitory effects” value in assay [6] is recorded as “high”.
Regarding `CN(C)c1cc2c(cc1N)-c1ccccc1C2` [Compound 64, N^2,N^2-Dimethyl-9H-fluorene-2,3-diamine], the “activity values (lipid peroxidation inhibition) in both AA-added and tBHP-added systems” value in assay [3] is “hit compounds”.
For `NC(=O)c1cccc(-c2ccc3nc(-c4cccc(OCCO)c4)c(NCCN4CCOCC4)n3c2)c1` [Compound 73, 3-(2-(3-(2-Hydroxyethoxy)phenyl)-3-((2-morpholinoethyl)amino)imidazo[1,2-a]pyridin-6-yl)benzamide], the “inhibition rates (cell death inhibition)” value in assay [4] was “high inhibition rates in both systems”.
Consider `Nc1ccc2c(c1)CCN2c1ccc(OC(F)(F)F)cc1` [Compound 78, 1-(4-(Trifluoromethoxy)phenyl)indolin-5-amine], for which the “cell death inhibitory effects” value in assay [5] is on record as “high”. Moreover, the “inhibition rates (cell death inhibition)” value in assay [4] is listed as “high inhibition rates in both systems”. Moreover, in assay [6], the “lipid peroxidation inhibitory effects” value is “high”.
As for `Cc1cc(C)cc(-n2ccc3ccc(N)cc32)c1` [Compound 78-3, 1-(3,5-Dimethylphenyl)-1H-indol-6-amine], in assay [5], the “cell death inhibitory effects” value is reported as “high”. In addition, the “lipid peroxidation inhibitory effects” value in assay [6] is given as “high”.
On to `Cc1cc(C)cc(N2CCc3ccc(N)cc32)c1` [Compound 78-4, 1-(3,5-Dimethylphenyl)indolin-6-amine], for which, in assay [5], the “cell death inhibitory effects” value is “high”. Moreover, the “lipid peroxidation inhibitory effects” value in assay [6] was “high”.
On to `COc1ccc(-n2ccc3cc(N)ccc32)cc1` [Compound 78-5, 1-(4-Methoxyphenyl)-1H-indol-5-amine], for which the “cell death inhibitory effects” value in assay [5] is “high”. The “lipid peroxidation inhibitory effects” value in assay [6] is “high”.
In the case of `CSc1ccc(-n2ccc3cc(N)ccc32)cc1` [Compound 78-6, 1-(4-(Methylthio)phenyl)-1H-indol-5-amine], in assay [5], the “cell death inhibitory effects” value is listed as “high”. For the same molecule, the “lipid peroxidation inhibitory effects” value in assay [6] is “high”.
For the molecule `Nc1ccc2c(ccn2-c2ccc(OC(F)(F)F)cc2)c1` [Compound 78-8], in assay [5], the “cell death inhibitory effects” value is “high”. In addition, the “lipid peroxidation inhibitory effects” value in assay [6] is recorded as “high”.
As for `CC1=NN(c2ccccc2)C(=O)C1` [Eda, Edaravone], the “inhibition of NBD-TEEPO fluorescence increase” value in assay [7] is reported as “inhibited the fluorescence increase concentration-dependently”.

(Values after patent US12306164B2, “Therapeutic drug for lipid-peroxidation-induced diseases and screening method for therapeutic drugs for lipid-peroxidation-induced diseases” (FUSO PHARMACEUTICAL INDUSTRIES, LTD., priority 2017, dated 2025).)
